Assay results: patent publication US6444617B1, “Fused-heterocycle dicarboxylic acid diamide derivatives or salts thereof, herbicide and usage thereof” (Nihon Nohyaku Co., Ltd., priority 1998, dated 2002)

Columns and labels:
Type in all cases: in vivo
[1] = test system: barnyard grass (Echinochloa crus-galli Beauv.); assay: Test Example 1: herbicidal effect on paddy field weeds before emergence; settings: Dosage 5 kg/ha
Summary of the method: (§1)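 Soil in pots is brought to paddy state and seeded with barnyard grass and bulrush; before germination, the soil receives a predetermined dosage of test compound in solution. After twenty-one days, control rate relative to untreated pots is calculated and graded.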

[2] = test system: bulrush (Scirpus juncoides Roxb.); assay: as above; settings: Dosage 5 kg/ha
Summary of the method: as §1

[3] = test system: barnyard grass (Echinochloa crus-galli Beauv.); assay: Test Example 2: herbicidal effect on paddy field weeds after emergence; settings: Dosage 5 kg/ha; one-leaved stage; 21 days after treatment
Summary of the method: (§2)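 Weeds were sown in 1/10000 are pots of soil flooded to paddy conditions and grown to the one-leaf stage, then the soil was treated with a solution of compound at a predetermined dosage.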

[4] = test system: bulrush (Scirpus juncoides Roxb.); assay: as above; settings: Dosage 5 kg/ha; one-leaved stage; 21 days after treatment
Summary of the method: as §2

[5] = test system: monochoria (Monochoria vaginalis Presl); assay: as above; settings: Dosage 5 kg/ha; one-leaved stage; 21 days after treatment
Summary of the method: as §2

[6] = test system: barnyard grass (Echinochloa crus-galli Beauv.), Ec; assay: Test Example 3: herbicidal effect on upland weeds before emergence; settings: dosage 5 kg/ha
Summary of the method: (§3)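 Read-out is the weed-killing rate, scored fourteen days after a single spray application made before the weeds emerged. The spray was a liquid agent carrying the active compound at a prescribed dose.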

[7] = test system: bird's eye speedwell (Veronica persica Poir.), Vp; assay: as above; settings: dosage 5 kg/ha
Summary of the method: as §3

[8] = test system: cleavers (Galium aparine L.), Ga; assay: as above; settings: dosage 5 kg/ha
Summary of the method: as §3

[9] = test system: cocklebur (Xanthium strumarium L.), Xs; assay: as above; settings: dosage 5 kg/ha
Summary of the method: as §3

[10] = test system: forxtail grass (Alopecurus aequalis var. amurensis Ohwi), Am; assay: as above; settings: foxtail grass, dosage 5 kg/ha
Summary of the method: as §3

[11] = test system: velvetleaf (Abutilon theophtasti L.), At; assay: as above; settings: dosage 5 kg/ha
Summary of the method: as §3

soybean plant (So) = assay: Test Example 3: phytotoxicity to upland crop plants, treatment before emergence; settings: dosage 5 kg/ha
Summary of the method: (§4)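 Pre-emergence spray, test compound at prescribed conc. in liquid formulation; crop injury (soybean, wheat) read at day 14, scored by criterion.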

wheat (Wh) = assay: as above; settings: dosage 5 kg/ha
Summary of the method: as §4

[12] = test system: barnyard grass (Echinochloa crus-galli Beauv.), Ec; assay: Test Example 4: herbicidal effect on upland weeds after emergence; settings: dosage 5 kg/ha; sprayed after emergence; judged 14 days after treatment
Summary of the method: (§5)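 Post-emergence foliar spray, compound at prescribed concentration, applied at defined leaf stages; weeds plus soybean/wheat grown in soil vats. Read-out: weed-killing rate and crop injury, 14 d post-treatment.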

[13] = test system: bird's eye speedwell (Veronica persica Poir.), Vp; assay: as above; settings: dosage 5 kg/ha; sprayed after emergence; judged 14 days after treatment
Summary of the method: as §5

[14] = test system: cleavers (Galium aparine L.), Ga; assay: as above; settings: dosage 5 kg/ha; sprayed after emergence; judged 14 days after treatment
Summary of the method: as §5

[15] = test system: cocklebur (Xanthium strumarium L.), Xs; assay: as above; settings: dosage 5 kg/ha; sprayed after emergence; judged 14 days after treatment
Summary of the method: as §5

[16] = test system: forxtail grass (Alopecurus aequalis var. amurensis Ohwi), Am; assay: as above; settings: dosage 5 kg/ha; sprayed after emergence; judged 14 days after treatment
Summary of the method: as §5

[17] = test system: velvetleaf (Abutilon theophtasti L.), At; assay: as above; settings: dosage 5 kg/ha; sprayed after emergence; judged 14 days after treatment
Summary of the method: as §5

soybean plant = assay: Test Example 4: phytotoxicity to upland crop plants, treatment after emergence; settings: dosage 5 kg/ha, sprayed after emergence, judged 14 days after treatment
Summary of the method: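 Upland weeds and crop plants (soybean, wheat) are grown from seed in soil until they reach given leaf stages, then treated by spraying with the compound-containing agent; effects are judged two weeks later.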

wheat = assay: as above; settings: dosage 5 kg/ha, sprayed after emergence, judged 14 days after treatment
Summary of the method: as §5

Structure (SMILES) | Pre-emergence treatment Barnyard grass (herbicidal effect) [1] | Pre-emergence treatment Bulrush (herbicidal effect) [2] | Post-emergence treatment Barnyard grass (herbicidal effect) [3] | Post-emergence treatment Bulrush (herbicidal effect) [4] | Post-emergence treatment Monochoria (herbicidal effect) [5] | Herbicidal effect Ec [6] | Herbicidal effect Vp [7] | Herbicidal effect Ga [8] | Herbicidal effect Xs [9] | Herbicidal effect Am [10] | Herbicidal effect At [11] | Phytotoxicity So (soybean plant (So)) | Phytotoxicity Wh (wheat (Wh)) | Herbicidal effect Ec [12] | Herbicidal effect Vp [13] | Herbicidal effect Ga [14] | Herbicidal effect Xs [15] | Herbicidal effect Am [16] | Herbicidal effect At [17] | Phytotoxicity So (soybean plant) | also measured
CCCNC(=O)c1nc2c(cc1C(=O)Nc1c(CC)ccc(Cl)c1CC)OCCC2 [compound 486] | 5 (Weed-killing rate is 100%.) | 5 (Weed-killing rate is 100%.) | 5 (Weed-killing rate is 100%.) | 5 (Weed-killing rate is 100%.) | 5 (Weed-killing rate is 100%.) | 5 (Weed-killing rate is 100%.) | 5 (Weed-killing rate is 100%.) | 5 (Weed-killing rate is 100%.) | 5 (Weed-killing rate is 100%.) | 5 (Weed-killing rate is 100%.) | 5 (Weed-killing rate is 100%.) | 4 (Crop-killing rate is 90-99%.) | 4 (Crop-killing rate is 90-99%.) | 5 (Weed-killing rate is 100%.) | 5 (Weed-killing rate is 100%.) | 5 (Weed-killing rate is 100%.) | 5 (Weed-killing rate is 100%.) | 5 (Weed-killing rate is 100%.) | 5 (Weed-killing rate is 100%.) | 4 (Crop-killing rate is 90-99%.) | Phytotoxicity Wh (wheat): 4 (Crop-killing rate is 90-99%.)
CCCNC(=O)c1nc2c(cc1C(=O)Nc1cccc(Cl)c1C)OCCC2 [compound 498] | 5 (Weed-killing rate is 100%.) | 5 (Weed-killing rate is 100%.) | 5 (Weed-killing rate is 100%.) | 5 (Weed-killing rate is 100%.) | 5 (Weed-killing rate is 100%.) | 5 (Weed-killing rate is 100%.) | 5 (Weed-killing rate is 100%.) | 4 (Weed-killing rate is 90-99%.) | 4 (Weed-killing rate is 90-99%.) | 5 (Weed-killing rate is 100%.) | 5 (Weed-killing rate is 100%.) | 4 (Crop-killing rate is 90-99%.) | 4 (Crop-killing rate is 90-99%.) | 5 (Weed-killing rate is 100%.) | 5 (Weed-killing rate is 100%.) | 4 (Weed-killing rate is 90-99%.) | 4 (Weed-killing rate is 90-99%.) | 5 (Weed-killing rate is 100%.) | 5 (Weed-killing rate is 100%.) | 4 (Crop-killing rate is 90-99%.) | Phytotoxicity Wh (wheat): 4 (Crop-killing rate is 90-99%.)
CCCNC(=O)c1nc2c(cc1C(=O)Nc1c(CC)ccc(Cl)c1CC)CCCS2 [compound 510] | 5 (Weed-killing rate is 100%.) | 5 (Weed-killing rate is 100%.) | 5 (Weed-killing rate is 100%.) | 5 (Weed-killing rate is 100%.) | 5 (Weed-killing rate is 100%.) | 5 (Weed-killing rate is 100%.) | 5 (Weed-killing rate is 100%.) | 5 (Weed-killing rate is 100%.) | 5 (Weed-killing rate is 100%.) | 5 (Weed-killing rate is 100%.) | 5 (Weed-killing rate is 100%.) | 4 (Crop-killing rate is 90-99%.) | 5 (Crop-killing rate is 100%.) | 5 (Weed-killing rate is 100%.) | 5 (Weed-killing rate is 100%.) | 5 (Weed-killing rate is 100%.) | 5 (Weed-killing rate is 100%.) | 5 (Weed-killing rate is 100%.) | 5 (Weed-killing rate is 100%.) | 4 (Crop-killing rate is 90-99%.) | Phytotoxicity Wh (wheat): 5 (Crop-killing rate is 100%.)
CCc1ccc(Cl)c(CC)c1NC(=O)c1cc2c(nc1C(=O)NC1CCCC1)SCCC2 [compound 519] | 5 (Weed-killing rate is 100%.) | 5 (Weed-killing rate is 100%.) | 5 (Weed-killing rate is 100%.) | 5 (Weed-killing rate is 100%.) | 5 (Weed-killing rate is 100%.) | 5 (Weed-killing rate is 100%.) | 5 (Weed-killing rate is 100%.) | 5 (Weed-killing rate is 100%.) | 5 (Weed-killing rate is 100%.) | 5 (Weed-killing rate is 100%.) | 5 (Weed-killing rate is 100%.) | 4 (Crop-killing rate is 90-99%.) | 5 (Crop-killing rate is 100%.) | 5 (Weed-killing rate is 100%.) | 5 (Weed-killing rate is 100%.) | 5 (Weed-killing rate is 100%.) | 5 (Weed-killing rate is 100%.) | 5 (Weed-killing rate is 100%.) | 5 (Weed-killing rate is 100%.) | 4 (Crop-killing rate is 90-99%.) | Phytotoxicity Wh (wheat): 5 (Crop-killing rate is 100%.)
